Tests used:
[1] = system: HER-2/neu; test: Western blotting for expression of HER-2/neu (test (b)); type: cell-based, human; conditions: positive in 184B5/HER, BT474 and SKBR3 cells; 24 h; Western blot
From the text: (§1) We turn now to the criterion (b), that is at least 50% decrease in level of or 50% downregulation of expression of Class I family of receptors tyrosine kinase. The Class I family of receptors tyrosine kinase is described in Reese, M. D., et al Stem Cells 15, pages 1-8 (1997), the whole of which in incorporated herein by reference. Members of the family include HER-2/neu, HER-3, HER-4 and epidermal growth factor receptor (EGFR) and are single-chain membrane spanning proteins which have significant homology to one another including about 80% amino acid identity in the tyrosine kinase domain.
HER-2/neu (erbB-2) gene product is a 185-kDA transmembrane receptor tyrosine kinase that is described in some detail in said Reese et al publication and overexpression thereof has been associated with tumor growth in several kinds of cancer.
(§2) To evaluate the expression of Class I family of receptors tyrosine kinase (EGFR, HER-2/neu), Western blotting can be performed. Antibodies for EGFR and HER-2/neu can be obtained from Santa Cruz Biotechnology, Inc.
(§3) Expression of EGFR (performed in 184B5, 184B5/HER, 1483, LNCaP, HeLa and CaSki cells)and HER-2/neu (performed in 184B5/HER, SKBR3 and BT474 cells) was assessed in cells after treatment with test compound for 24 hours. 5×10^6 cells were used for the treatment. Western blotting technique was used to assess the expression levels in cells treated with the test compound compared to vehicle alone. Western blotting was carried out as follows:
(§4) Cell lysates were prepared by treating cells with lysis buffer (150 mM NaCl, 100 mM Tris (pH 8.0), 1% Tween 20, 50 mM diethyldithiocarbamate, 1 mM EDTA, 1 mM phenylmethylsulfonyl fluoride, 10 μg/ml aprotinin, 10 μg/ml trypsin inhibitor and 10 μg/ml leupeptin). Lysates were sonicated for 20 s on ice and centrifuged at 10,000×g for 10 min to sediment the particulate material. The protein concentration of the supernatant was measured by the method of Lowry, O. H., et al., J. Biol. Chem. 193, 265-275 (195 1). SDS/PAGE was performed under reducing conditions on 10% polyacrylamide gels as described by Laemmli, U.K., Nature (Lond.) 227, 680-685 (1970). The resolved proteins were transferred onto nitrocellulose sheets as detailed by Towbin, H. et al., Proc. Natl. Acad. Sci. USA 76, 4350-4354 (1979). The nitrocellulose membrane was then incubated with anti-EGFR antiserum or anti-HER-2/neu antiserum. Secondary antibody to IgG conjugated to horseradish peroxidase was used. The various antisera were purchased from Santa Cruz Biotechnology, Inc., CA. The blots were probed with the Renaissance Western blot detection system according to the manufacturer's instructions (PerkinElmer Life Sciences, Boston, Mass.).

[2] = system: EGFR; test: Western blotting for expression of EGFR (test (b)); type: cell-based, human; conditions: for Test (b) EGFR: at least 50% decrease in level of or 50% downregulation of expression: positive in 184B5, 184B5/HER, 1483, LNCaP, HeLa and CaSki cells, 24 h, Western blot
From the text: as §1
Epidermal growth factor receptor (EGFR) is a 170 kDA glycoprotein. […] After ligand binding, EGFR undergoes dimerization which is essential for activation of its enzymatic kinase activity. EGFR is thus autophospliorylated and transphosphorylated on tyrosine residues, and the phosphorylated residues become the site of association of effector proteins. Overexpressed EGFR is intimately involved in modulating the epidermal growth factor growth signal and is considered as likely to confer a growth advantage. This conclusion is supported by the observation that tumor growth in nude mice is inhibited by treatment with anti-EGFR antibodies and tumorigenicity in nude mice is inhibited through blockage of the tyrosine kinase activity of the receptor.
as §2, §3, §4

[3] = system: HPV16 oncoproteins E6 and E7; test: Western and Northern blotting for HPV16 oncoproteins E6 and E7 (test (d)); type: cell-based, human papillomavirus; conditions: for Test (d) at least 50% downregulation of expression of HPV16 oncoproteins E6 and E7: positive in CaSki and SiHa cells
Description: We turn now to the criterion (d), that is at least 50% downregulation of expression of HPV16 oncoproteins E6 and E7.
Protein E6 and E7 which are expressed by HPV16 are believed to play a major role in carcinogenesis.
Western blotting and Northern blotting techniques were used to evaluate the expression of HPV E6 and E7 proteins. The cell lines used for the study were CaSKi and SiHa. The cells were treated with the test compound and cell lysate was obtained as described above and subjected to Western blotting analysis. The Western blotting analysis was performed as described above except anti-HPV 16 E7 antibody was used to probe the blot. The antibody was obtained from Santa Cruz Biotechnology, Inc. CA. For Northern blotting, total cellular RNA was isolated from cell monolayers using an RNA isolation kit from QIAGEN Inc. after treatment with the test compound. 10 μg of total cellular RNA per lane were electrophoresed in a formaldehyde-containing 1.2% agarose gel and transferred to nylon-supported membranes. After baking, membranes were prehybridized overnight in a solution containing 50% formamide, 5×sodium chloride-sodium phosphate-EDTA buffer (SSPE), 5×Denhardt's solution, 0.1% SDS and 100 μg/ml single-stranded salmon sperm DNA and then hybridized for 12 h at 42° C. with radiolabeled cDNA probes for human HPV16 E6 or E7 cDNAs and 18S rRNA. E6 and E7 (as described in Woodworth, C. D., Cancer Res. 16, 4397-4402 (2000)) and 18S rRNA probes were labeled with [^32P]-CTP by random priming. After hybridization, membranes were washed twice for 20 min at room temperature in 2×SSPE-0.1% SDS, twice for 20 min in the same solution at 55° C., and twice for 20 min in 0.1×SSPE-0.1% SDS at 55° C. Washed membranes were then subjected to autoradiography.

[4] = system: cyclin D1; test: Western blotting for expression of cyclin D1 (test (c)); type: cell-based, human; conditions: for Test (c) at least 50% downregulation of expression of cyclin D1: positive in 184B5, 184B5/HER cells, 24 h, Western blot
Description: Cyclin D1 is a protein that is important in regulating cell proliferation and is described in Ortega, S., et al, Biochimica et Biophysica Acta 1602, 73-87, (2002), the whole of which is incorporated by reference. […] Effects on expression of cyclin D1 was investigated in 184B5, 184B5/HER, HCA7, HCT116, SKBR3 and BT474 cells. The expression was assessed in cells after treatment with test compound or vehicle using 5×10^4 cells for 24 hours. Western blotting technique was used as follows to assess the expression levels of cyclin D1 in cells treated with the test compound and compared to levels in cells treated with vehicle alone. Cell lysates were prepared by treating cells with lysis buffer as described above. […] The resolved proteins were transferred onto nitrocellulose sheets. The nitrocellulose membrane was then incubated with anti-cyclin D1 antiserum. Secondary antibody to IgG conjugated to horseradish peroxidase was used. The various antisera were purchased from Santa Cruz Biotechnology, Inc., CA. The blots were probed with the Renaissance Western blot detection system according to the manufacturer's instructions (PerkinElmer Life Sciences, Boston, Mass.).

[5] = Patient with colon cancer (Example IV); type: in vivo, human; conditions: person, 800 mg bid
From the text: A person presents with symptoms of constipation and rectal bleeding and is diagnosed with colon cancer.

[6] = 184B5 cells, 24 hours, Western blotting

| SMILES | Test (b) HER-2/neu: at least 50% decrease in level of or 50% downregulation of expression [1] | Test (b) EGFR: at least 50% decrease in level of or 50% downregulation of expression [2] | Test (d) at least 50% downregulation of expression of HPV16 oncoproteins E6 and E7 [3] | Test (c) at least 50% downregulation of expression of cyclin D1 [4] | rate of progression of the colon cancer [5] | decrease in level of EGFR [2, 6] | decrease in level of cyclin D1 [4, 6] | decrease in amounts of E6 mRNA ([3]; CaSki cells, 24 hours, 0-5.0 μM, Northern blotting) | inhibition of HPV16 E7 protein ([3]; CaSki cells, 24 hours, 0-5.0 μM, high concentration, Western blot) |
| --- | --- | --- | --- | --- | --- | --- | --- | --- | --- |
| CCCCCCCOC(=O)Cc1c(C)n(C(=O)c2ccc(Cl)cc2)c2ccc(OC)cc12 [Indomethacin Analog 1, indomethacin heptyl ester] | + (A plus sign in the table indicates a positive result, that is meeting the test for each cell line as indicated above as providing a positive result) | + (A plus sign in the table indicates a positive result, that is meeting the test for each cell line as indicated above as providing a positive result) | + (A plus sign in the table indicates a positive result, that is meeting the test for each cell line as indicated above as providing a positive result) | – | – | – | – | – | – |
| Cc1ccc(-c2cc(C(F)(F)F)nn2-c2ccc(S(N)(=O)=O)cc2)cc1 [Celecoxib] | + (A plus sign in the table indicates a positive result, that is meeting the test for each cell line as indicated above as providing a positive result) | + (A plus sign in the table indicates a positive result, that is meeting the test for each cell line as indicated above as providing a positive result) | + (A plus sign in the table indicates a positive result, that is meeting the test for each cell line as indicated above as providing a positive result) | + (A plus sign in the table indicates a positive result, that is meeting the test for each cell line as indicated above as providing a positive result) | decreases | – | – | – | – |
| NS(=O)(=O)c1ccc(-n2nc(C(F)(F)F)cc2-c2ccc(Cl)cc2)cc1 [SC-236, 4-[5-(4-chlorophenyl)-3-(trifluoromethyl)-1H-pyrazol-1-yl]benzenesulfonamide] | + (A plus sign in the table indicates a positive result, that is meeting the test for each cell line as indicated above as providing a positive result) | + (A plus sign in the table indicates a positive result, that is meeting the test for each cell line as indicated above as providing a positive result) | + (A plus sign in the table indicates a positive result, that is meeting the test for each cell line as indicated above as providing a positive result) | + (A plus sign in the table indicates a positive result, that is meeting the test for each cell line as indicated above as providing a positive result) | decreases | more than 50% | more than 50% | greater than 50% | greater than 50% |
| CS(=O)(=O)c1ccc(-n2nc(C(F)(F)F)cc2-c2ccc(F)cc2)cc1 [SC-58125, 4-[5-(4-fluorophenyl)-3-(trifluoromethyl)-1H-pyrazol-1-yl]benzenemethylsulfone] | + (A plus sign in the table indicates a positive result, that is meeting the test for each cell line as indicated above as providing a positive result) | + (A plus sign in the table indicates a positive result, that is meeting the test for each cell line as indicated above as providing a positive result) | + (A plus sign in the table indicates a positive result, that is meeting the test for each cell line as indicated above as providing a positive result) | + (A plus sign in the table indicates a positive result, that is meeting the test for each cell line as indicated above as providing a positive result) | – | – | – | – | – |
| COc1ccc(OC(=O)Cc2c(C)n(C(=O)c3ccc(Cl)cc3)c3ccc(OC)cc23)cc1 [Indomethacin Analog 3, 1-(p-chlorobenzoyl)-5-methoxy-2-methyl-1H-indole-3-acetic acid, 4-methoxyphenyl ester] | + (A plus sign in the table indicates a positive result, that is meeting the test for each cell line as indicated above as providing a positive result) | + (A plus sign in the table indicates a positive result, that is meeting the test for each cell line as indicated above as providing a positive result) | – | – | – | – | – | – | – |
